Test results from US9796725B2, “Pyrazolopyrimidinyl inhibitors of ubiquitin-activating enzyme” (Millennium Pharmaceuticals, Inc., priority 2012, dated 2017).

Key:
[1] = tested on: mouse acute myeloid leukemia (AML model); details: cited from earlier work
recombinant human UAE = recombinant human UAE (Homo sapiens (Human), UniProt P22314); test: Ubiquitin Activating Enzyme (UAE) HTRF Assay
Sequence of recombinant human UAE (P22314 whole entry): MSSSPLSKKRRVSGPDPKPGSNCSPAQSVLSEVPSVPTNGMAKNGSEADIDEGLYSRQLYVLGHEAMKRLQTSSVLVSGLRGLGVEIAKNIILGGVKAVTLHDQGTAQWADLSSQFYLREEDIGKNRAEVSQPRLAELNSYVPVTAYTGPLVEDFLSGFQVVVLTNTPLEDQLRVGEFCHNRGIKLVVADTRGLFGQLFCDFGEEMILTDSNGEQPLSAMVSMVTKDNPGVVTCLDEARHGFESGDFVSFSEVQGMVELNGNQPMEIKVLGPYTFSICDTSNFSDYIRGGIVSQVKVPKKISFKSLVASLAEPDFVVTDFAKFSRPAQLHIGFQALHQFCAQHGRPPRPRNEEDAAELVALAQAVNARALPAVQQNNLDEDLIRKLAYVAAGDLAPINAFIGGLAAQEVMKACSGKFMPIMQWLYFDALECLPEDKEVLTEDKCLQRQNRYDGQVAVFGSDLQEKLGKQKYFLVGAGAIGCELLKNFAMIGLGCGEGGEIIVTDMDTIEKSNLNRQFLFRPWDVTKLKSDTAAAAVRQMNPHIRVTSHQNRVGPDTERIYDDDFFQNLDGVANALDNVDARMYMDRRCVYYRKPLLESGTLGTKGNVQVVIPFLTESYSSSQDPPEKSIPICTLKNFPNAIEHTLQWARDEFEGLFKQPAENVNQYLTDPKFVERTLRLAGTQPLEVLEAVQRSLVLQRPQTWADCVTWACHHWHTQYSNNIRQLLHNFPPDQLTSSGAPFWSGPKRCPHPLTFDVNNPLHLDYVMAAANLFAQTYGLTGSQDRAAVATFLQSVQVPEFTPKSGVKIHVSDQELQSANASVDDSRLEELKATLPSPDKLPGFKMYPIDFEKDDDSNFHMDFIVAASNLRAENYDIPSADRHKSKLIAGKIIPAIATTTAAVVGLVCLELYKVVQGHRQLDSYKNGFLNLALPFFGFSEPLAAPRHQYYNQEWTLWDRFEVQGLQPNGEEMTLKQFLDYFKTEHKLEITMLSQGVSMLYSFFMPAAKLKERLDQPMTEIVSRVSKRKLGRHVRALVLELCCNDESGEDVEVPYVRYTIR
Procedure: After incubation for 120 minutes, quantification of the FRET is performed on the Pherostar (BMG).
For compounds whose values are marked with an asterisk (*), mouse UAE was used. For all other compounds, human UAE was used.

Row | Compound | anti-tumor activity [1] | IC50 (recombinant human UAE)
1 | O=C1NN(c2ccc(F)c(Cl)c2)C(=O)/C1=C\c1ccc([N+](=O)[O-])o1 [PYZD-4409] | demonstrated anti-tumor activity | 
2 | NS(=O)(=O)OC[C@H]1C[C@@H](Nc2ccnc3cc(-c4cccc5cc(C(=O)O)ccc45)nn23)[C@H](O)[C@@H]1O (relative stereo) [Compound I-099, (rac)-rel-5-[7-({(1R,2S,3R,4R)-2,3-dihydroxy-4-[(sulfamoyloxy)methyl]cyclopentyl}amino)pyrazolo[1,5-a]pyrimidin-2-y1]-2-naphthoic acid] |  | < 10 nM
3 | COc1ccc(C(C)(C)C)cc1-c1cc2nccc(N[C@@H]3C[C@H](COS(N)(=O)=O)[C@@H](O)[C@H]3O)n2n1 (racemic) [Compound I-063, (rac)-((1R,2R,3S,4R)-4-{[2-(5-tert-butyl-2-methoxyphenyl)pyrazolo[1,5-a]pyrimidin-7-yl]amino}-2,3-dihydroxycyclopentyl)methyl rel-sulfamate] |  | < 10 nM
